We go through 19 compounds from patent US9957251B2 (Takeda Pharmaceutical Company Limited, priority 2014, dated 2018).

One assay addresses T1, CDK8/CycC (Homo sapiens, UniProt P49336).
T1 construct: purchased Carna Biosciences
Briefly: CDK8 inhibitory activity (TR-FRET, Kinase Tracer-236 displacement). Type of assay: binding. The settings on record: 1 μM of the test compound; read-out: Percent inhibition of CDK8 activity (%). The protocol:
(§1) The compound of the present invention was evaluated for its CDK8 inhibitory activity and CDK19 inhibitory activity by the following method. […] The primary diluted solution was dispensed in the amount of 2 μL/well to a 384-well plate, and then, a mixed solution of Eu^3+ Cryptate conjugated mouse monoclonal antibody anti-glutathione S-transferase (Cisbio) diluted 267-fold with an assay buffer and 60 nM Kinase Tracer-236 (Life technologies) was added thereto at 2 μL/well. After the addition, each kinase solution (84 ng/mL CDK8/CycC (Carna Biosciences) diluted with an assay buffer used for CDK8 inhibitory activity measurement, and 87 ng/mL CDC2L6/CycC (Carna Biosciences) diluted with an assay buffer used for CDK19 inhibitory activity measurement) was further added thereto at 2 μL/well. After the addition, the plate was left standing at room temperature for 1 hour, and then, the fluorescence intensity (excitation wavelength 320 nm, fluorescence wavelength 615 nm, 665 nm, delay time 50 μsec) was measured using an EnVision plate reader (PerkinElmer).

For a further assay, the target named is T2, CDK19 (CDC2L6/CycC) (Homo sapiens, UniProt Q9BWU1).
T2 construct: purchased Carna Biosciences
T2 sequence (Q9BWU1 whole entry): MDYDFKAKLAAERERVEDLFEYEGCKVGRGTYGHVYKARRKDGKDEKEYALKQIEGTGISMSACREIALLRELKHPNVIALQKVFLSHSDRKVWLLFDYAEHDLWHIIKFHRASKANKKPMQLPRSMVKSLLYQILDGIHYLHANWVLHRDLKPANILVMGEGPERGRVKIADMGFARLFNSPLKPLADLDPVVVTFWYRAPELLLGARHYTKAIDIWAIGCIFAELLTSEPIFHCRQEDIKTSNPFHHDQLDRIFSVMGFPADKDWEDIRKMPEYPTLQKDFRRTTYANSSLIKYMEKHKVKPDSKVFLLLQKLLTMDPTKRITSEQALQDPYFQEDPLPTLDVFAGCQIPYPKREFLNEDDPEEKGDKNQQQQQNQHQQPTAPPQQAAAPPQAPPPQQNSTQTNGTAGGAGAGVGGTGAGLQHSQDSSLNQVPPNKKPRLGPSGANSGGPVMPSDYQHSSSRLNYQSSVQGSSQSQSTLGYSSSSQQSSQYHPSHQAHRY
T2 sequence (P24863 whole entry partner): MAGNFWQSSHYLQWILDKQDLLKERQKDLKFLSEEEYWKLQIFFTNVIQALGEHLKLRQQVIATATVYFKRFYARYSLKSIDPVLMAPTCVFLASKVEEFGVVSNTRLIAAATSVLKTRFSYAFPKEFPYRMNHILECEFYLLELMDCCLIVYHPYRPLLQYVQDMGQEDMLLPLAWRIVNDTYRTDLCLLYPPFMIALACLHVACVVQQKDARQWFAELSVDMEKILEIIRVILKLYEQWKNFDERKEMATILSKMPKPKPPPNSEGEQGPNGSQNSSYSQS
Briefly: CDK19 inhibitory activity (TR-FRET, Kinase Tracer-236 displacement). Type of assay: binding. As to conditions: 1 μM of the test compound; read-out: Percent inhibition of CDK19 activity (%). On the procedure: as §1
For orientation: TR-FRET usually uses a lanthanide donor and a delayed reading to cut background.

The subject of assay [1] is human multiple myeloma RPMI8226 cells. Kind of assay: Inhibitory activity against human multiple myeloma RPMI8226 cell growth (CellTiter-Glo). Type of assay: cell-based. As to conditions: Homo sapiens, RPMI-8226, 192 h, 1 μM of the test compound, cultured for 8 days; read-out: Percent inhibition of RPMI8226 cell growth (%). On the procedure:
The compound of the present invention was evaluated for its inhibitory activity against human multiple myeloma RPMI8226 cell growth by the following method.
A suspension of human multiple myeloma RPMI8226 cells (purchased from the Health Protection Agency) was inoculated at 40 μL (300 cells/well) to a 384-well plate and cultured at 37° C. for 1 day in a 5% CO2 incubator. After the culture, each test compound solution was added thereto at a test concentration of 1 μM using TECAN D300, and the cells were further cultured for 8 days. After the culture, CellTiter-Glo™ Luminescent Cell Viability Assay reagent (Promega) was added at 40 μL/well to a 384-well plate, and the amount of luminescence was measured using a luminometer. Inhibitory activity against human multiple myeloma RPMI8226 cell growth (percent inhibition (%)) of the test compound was calculated according to the following formula, which is based on the hypothesis that the amount of residual ATP reflects the number of cells. In this formula, 100% control represents the amount of luminescence from a well with only 0.1% DMSO added. Percent inhibition (%)=(1−(amount of luminescence of the test compound)÷(100% control))×100
Background: In ATP-based viability assays light output follows the ATP content of the culture.

T1 sequence (P49336 whole entry): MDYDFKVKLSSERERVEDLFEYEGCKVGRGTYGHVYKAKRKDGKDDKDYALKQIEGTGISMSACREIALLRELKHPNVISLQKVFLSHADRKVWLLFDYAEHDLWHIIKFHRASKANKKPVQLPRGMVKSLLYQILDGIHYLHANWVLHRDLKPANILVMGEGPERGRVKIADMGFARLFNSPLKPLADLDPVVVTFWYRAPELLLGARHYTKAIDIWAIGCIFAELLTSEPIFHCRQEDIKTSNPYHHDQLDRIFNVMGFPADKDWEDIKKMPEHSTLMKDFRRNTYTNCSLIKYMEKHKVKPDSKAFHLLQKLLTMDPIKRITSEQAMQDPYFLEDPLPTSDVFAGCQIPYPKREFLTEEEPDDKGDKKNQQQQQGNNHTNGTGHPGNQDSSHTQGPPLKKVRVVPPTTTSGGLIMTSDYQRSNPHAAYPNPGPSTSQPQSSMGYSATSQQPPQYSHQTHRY
T1 sequence (P24863 whole entry partner): as the sequence (P24863 whole entry partner) above

Regarding `O=C(/C=C/c1cnccc1-c1cccs1)Nc1ccc(CCc2nnco2)cc1` [Example 1, (2E)-N-(4-(2-(1,3,4-Oxadiazol-2-yl)ethyl)phenyl)-3-(4-(2-thienyl)pyridin-3-yl)acrylamide], the values for the inhibition at 1 µM (at CDK8/CycC; on CDK19 (CDC2L6/CycC); in assay [1]) were 101%, 100% and 59%, respectively.
On to `Cc1nn(C)cc1-c1ccncc1/C=C/C(=O)Nc1ccc(CCc2nnco2)cc1` [Example 19, (2E)-3-(4-(1,3-dimethyl-1H-pyrazol-4-yl)pyridin-3-yl)-N-(4-(2-(1,3,4-oxadiazol-2-yl)ethyl)phenyl)acrylamide], for which the values for the inhibition at 1 µM (at CDK8/CycC; at CDK19 (CDC2L6/CycC); in assay [1]) were 100%, 98% and 54%, respectively.
For `Cn1cc(-c2ccncc2/C=C/C(=O)Nc2ccc(CN3CCOCC3)cc2)cn1` [Example 31, (2E)-3-(4-(1-Methyl-1H-pyrazol-4-yl)pyridin-3-yl)-N-(4-(morpholin-4-ylmethyl)phenyl)acrylamide], in that order: 100%, 98% and 60%.
For `O=C(/C=C/c1cnccc1-c1cn[nH]c1)Nc1ccc(CN2CCOCC2)cc1` [Example 33, (2E)-N-(4-(morpholin-4-ylmethyl)phenyl)-3-(4-(1H-pyrazol-4-yl)pyridin-3-yl)acrylamide], in that order: 100%, 99% and 61%.
For `Cn1cc(-c2ccncc2/C=C/C(=O)Nc2ccc(CN3CCOC(C)(C)C3)cc2)cn1` [Example 37, (2E)-N-(4-((2,2-Dimethylmorpholin-4-yl)methyl)phenyl)-3-(4-(1-methyl-1H-pyrazol-4-yl)pyridin-3-yl)acrylamide], in that order: 97%, 101% and 61%.
Take `Cn1cc(-c2ccncc2/C=C/C(=O)Nc2ccc(CN3CCOCC3)cc2F)cn1` [Example 41, (2E)-N-(2-Fluoro-4-(morpholin-4-ylmethyl)phenyl)-3-(4-(1-methyl-1H-pyrazol-4-yl)pyridin-3-yl)acrylamide]: the inhibition (as a rule, the relative decrease from the control value, in per cent) at 1 µM came out at 99% on CDK8/CycC, 97% at CDK19 (CDC2L6/CycC) and 56% in assay [1].
Consider `Cn1cc(-c2ccncc2/C=C/C(=O)Nc2ccc(CN3CCOCC3)c(Cl)c2)cn1` [Example 42, (2E)-N-(3-Chloro-4-(morpholin-4-ylmethyl)phenyl)-3-(4-(1-methyl-1H-pyrazol-4-yl)pyridin-3-yl)acrylamide], for which the figures for the inhibition at 1 µM (on CDK8/CycC; on CDK19 (CDC2L6/CycC); in assay [1]) were 99%, 99% and 53%, respectively.
With `CC(c1ccc(NC(=O)/C=C/c2cnccc2-c2cnn(C)c2)cc1)N1CCOCC1` (stereo not drawn) [Example 43, (2E)-3-(4-(1-methyl-1H-pyrazol-4-yl)pyridin-3-yl)-N-(4-(1-(morpholin-4-yl)ethyl)phenyl)acrylamide], the inhibition at 1 µM was determined as 96% on CDK8/CycC, 98% on CDK19 (CDC2L6/CycC) and 57% in assay [1].
As for `O=C(/C=C/c1cnccc1-c1cnn(CC2CC2)c1)Nc1ccc(CN2CCOCC2)cc1` [Example 45, (2E)-3-(4-(1-(Cyclopropylmethyl)-1H-pyrazol-4-yl)pyridin-3-yl)-N-(4-(morpholin-4-ylmethyl)phenyl)acrylamide], the inhibition at 1 µM turned out to be 98% at CDK8/CycC, 99% at CDK19 (CDC2L6/CycC) and 55% in assay [1].
Consider `O=C(/C=C/c1cnccc1-c1cnn(Cc2ccccn2)c1)Nc1ccc(CN2CCOCC2)cc1` [Example 47, (2E)-N-(4-(morpholin-4-ylmethyl)phenyl)-3-(4-(1-(pyridin-2-ylmethyl)-1H-pyrazol-4-yl)pyridin-3-yl)acrylamide], for which the inhibition at 1 µM is 101% on CDK8/CycC, 98% at CDK19 (CDC2L6/CycC) and 57% in assay [1].
As to `Cn1cc(-c2ccncc2/C=C/C(=O)Nc2ccc(CNC3CC3)cc2)cn1` [Example 49, (2E)-N-(4-((cyclopropylamino)methyl)phenyl)-3-(4-(1-methyl-1H-pyrazol-4-yl)pyridin-3-yl)acrylamide], the inhibition at 1 µM stood at 95% on CDK8/CycC, 96% at CDK19 (CDC2L6/CycC) and 56% in assay [1].
In the case of `Cn1cc(-c2ccncc2/C=C/C(=O)Nc2ccc(CN3CC4CCC(C3)O4)cc2)cn1` [Example 50, (2E)-3-(4-(1-methyl-1H-pyrazol-4-yl)pyridin-3-yl)-N-(4-(8-oxa-3-azabicyclo[3.2.1]oct-3-ylmethyl)phenyl)acrylamide], the inhibition at 1 µM is 96% on CDK8/CycC, 97% at CDK19 (CDC2L6/CycC) and 61% in assay [1].
For `Cn1cc(-c2ccncc2/C=C/C(=O)Nc2ccc(CN3CC4CC3CO4)cc2)cn1` (stereo not drawn) [Example 51, (2E)-3-(4-(1-methyl-1H-pyrazol-4-yl)pyridin-3-yl)-N-(4-(2-oxa-5-azabicyclo[2.2.1]hept-5-ylmethyl)phenyl)acrylamide], in that order: 100%, 96% and 58%.
Consider `C[C@@H]1CN(Cc2ccc(NC(=O)/C=C/c3cnccc3-c3cnn(C)c3)cc2)C[C@H](C)O1` [Example 53, (2E)-N-(4-(((2R,65)-2,6-dimethylmorpholin-4-yl)methyl)phenyl)-3-(4-(1-methyl-1H-pyrazol-4-yl)pyridin-3-yl)acrylamide], for which the inhibition at 1 µM on CDK8/CycC stood at 101%; on CDK19 (CDC2L6/CycC) it was 97%; in assay [1] it was 58%.
Take `CC1COCCN1Cc1ccc(NC(=O)/C=C/c2cnccc2-c2cnn(C)c2)cc1` (stereo not drawn) [Example 54, (2E)-N-(4-((3-methylmorpholin-4-yl)methyl)phenyl)-3-(4-(1-methyl-1H-pyrazol-4-yl)pyridin-3-yl)acrylamide]: the inhibition at 1 µM is 100% on CDK8/CycC, 95% at CDK19 (CDC2L6/CycC) and 55% in assay [1].
For `CC1CN(Cc2ccc(NC(=O)/C=C/c3cnccc3-c3cnn(C)c3)cc2)CCO1` (stereo not drawn) [Example 55, (2E)-N-(4-((2-methylmorpholin-4-yl)methyl)phenyl)-3-(4-(1-methyl-1H-pyrazol-4-yl)pyridin-3-yl)acrylamide], the inhibition at 1 µM at CDK8/CycC was 99%; at CDK19 (CDC2L6/CycC), 97%; in assay [1], 55%.
For `Cn1cc(-c2ccncc2/C=C/C(=O)Nc2ccc(CN3CC(F)(F)OC(F)(F)C3)cc2)cn1` [Example 58], in that order: 97%, 98% and 55%.
As for `Cn1cc(-c2ccncc2/C=C/C(=O)Nc2ccc(CN3CCC(F)(F)C3)cc2)cn1` [Example 68, (2E)-N-(4-((3,3-difluoropyrrolidin-1-yl)methyl)phenyl)-3-(4-(1-methyl-1H-pyrazol-4-yl)pyridin-3-yl)acrylamide], the inhibition at 1 µM on CDK8/CycC was 99%; on CDK19 (CDC2L6/CycC), 100%; in assay [1] it was 62%.
As to `Cn1cc(-c2ccncc2/C=C/C(=O)Nc2ccc(CN3CC(F)(F)C3)cc2)cn1` [Example 69, (2E)-N-(4-((3,3-difluoroazetidin-1-yl)methyl)phenyl)-3-(4-(1-methyl-1H-pyrazol-4-yl)pyridin-3-yl)acrylamide], the inhibition at 1 µM came to 99% at CDK8/CycC, 99% at CDK19 (CDC2L6/CycC) and 48% in assay [1].
